Measurements taken from US5789434A, “Derivatives of substituted 4-biarylbutyric acid as matrix metalloprotease inhibitors” (priority 1995, dated 1998).
Structures can show the parent of a compound that is named as a salt.

Legend:
[1] = target: T1, MMP-3 (Homo sapiens, UniProt P08254); test: Primary Thiopeptilide MMP-3 Inhibition Assay; format: biochemical; details: for inhibition at 5 µM: read-out: MMP-3 Thiopep. % inhibition; for IC50: pH 6.5, 13 nM stromelysin, x (n) = average of n determinations, read-out: MMP-3 Thiopep. IC50
T1 construct: Truncated Prostromelysin-257 was expressed in a soluble form in E.coli; made in house; host or cells: E. coli
T1 sequence (P08254 100-274 limits assumed): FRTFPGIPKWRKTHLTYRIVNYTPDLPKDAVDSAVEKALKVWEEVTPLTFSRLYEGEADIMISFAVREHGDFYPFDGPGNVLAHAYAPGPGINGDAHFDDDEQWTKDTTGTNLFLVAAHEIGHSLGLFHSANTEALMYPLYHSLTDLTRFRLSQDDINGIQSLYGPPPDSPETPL
Method: Enzyme: recombinant stromelysin expressed in E.coli and purified as described above. […] The protocols for the assay of compounds as stromelysin inhibitors was the same as that used for MMP-9 except that the assay buffer was 50 mM MES, pH 6.5 containing 150 mM NaCl, 10 mM CaCl2, 0.005% Brij, and 1% DMSO.

[2] = target: T2, MMP-9 (Homo sapiens, UniProt P14780); test: Thiopeptilide MMP-9 Inhibition Assay; format: biochemical; details: for inhibition at 5 µM: read-out: MMP-9: Thiopep. % inhibition; for IC50: pH 6.5, x (n) = average of n determinations, read-out: MMP-9: Thiopep. IC50
T2 construct: from tissue; host or cells: human polymorphonuclear leukocytes (PMN) from whole blood (New York Blood Center), PMA-stimulated supernatant
T2 sequence (P14780 107-707 limits assumed): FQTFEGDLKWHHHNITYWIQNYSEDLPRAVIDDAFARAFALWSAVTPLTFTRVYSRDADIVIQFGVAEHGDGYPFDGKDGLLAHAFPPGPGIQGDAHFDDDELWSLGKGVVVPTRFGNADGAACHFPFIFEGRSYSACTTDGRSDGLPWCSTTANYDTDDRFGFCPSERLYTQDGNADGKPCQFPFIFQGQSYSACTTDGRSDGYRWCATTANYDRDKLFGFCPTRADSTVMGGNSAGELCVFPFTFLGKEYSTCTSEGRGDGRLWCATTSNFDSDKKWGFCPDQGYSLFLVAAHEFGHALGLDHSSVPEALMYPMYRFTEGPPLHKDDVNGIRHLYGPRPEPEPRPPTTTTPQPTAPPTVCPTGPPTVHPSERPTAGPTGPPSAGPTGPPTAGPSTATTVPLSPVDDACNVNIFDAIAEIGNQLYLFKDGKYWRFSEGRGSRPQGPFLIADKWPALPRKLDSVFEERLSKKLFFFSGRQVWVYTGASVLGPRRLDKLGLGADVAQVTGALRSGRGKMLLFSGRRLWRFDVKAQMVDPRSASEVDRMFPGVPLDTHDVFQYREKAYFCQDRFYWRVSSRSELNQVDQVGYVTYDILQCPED

Row | SMILES | inhibition at 5 µM [1] | inhibition at 5 µM [2] | IC50 [1] | IC50 [2]
1 | CC(C)CC(CC(=O)c1ccc(-c2ccccc2F)cc1)C(=O)O (stereo not drawn) [Example 17, [1,1'-Biphenyl]-4-butanoic acid, 2'-fluoro-α-(2-methylpropyl)-γ-oxo-] | 35% | 0% |  | 
2 | COc1ccc(SCC(CC(=O)c2ccc(-c3ccc(Cl)cc3)cc2)C(=O)O)cc1 (stereo not drawn) [Example 206, [1,1'-Biphenyl]-4-butanoic acid, 4'-chloro-α-[[(4-methoxyphenyl)thio]methyl]-γ-oxo-] |  |  | 950 nM | 417 nM
3 | COC(=O)c1ccc(SCC(CC(=O)c2ccc(-c3ccc(Cl)cc3)cc2)C(=O)O)cc1 (stereo not drawn) [Example 237, [1,1'-Biphenyl]-4-butanoic acid, 4'-chloro-α-[[[4-(methoxycabonyl)phenyl]thio]methyl]-γ-oxo-] |  |  | 2000 nM | 
4 | O=C(CC(CSc1cccc(Br)c1)C(=O)O)c1ccc(-c2ccc(Cl)cc2)cc1 (stereo not drawn) [Example 228, [1,1'-Biphenyl]-4-butanoic acid, α-[[(3-bromophenyl)thio]methyl]-4'-chloro-γ-oxo-] |  |  | 360 nM | 800 nM
5 | O=C(CC(CCCc1ccccc1)C(=O)O)c1ccc(-c2ccc(Cl)cc2)o1 (stereo not drawn) [Example 350, 2-Furanbutanoic acid, 5-(4-chlorohenyl)-γ-oxo-α-(3-phenylpropyl)-] | 4% | 20% |  | 
6 | O=C(CC(C/C=C/c1ccccc1)C(=O)O)c1ccc(-c2ccc(Cl)cc2)cc1 (stereo not drawn) [Example 183, [1,1'-Biphenyl]-4-butanoic acid, 4'-chloro-γ-oxo-α-(3-phenyl-2-propenyl)-, (E)-] |  |  | 270 nM | 710 nM
7 | O=C(CC(CSc1ccccc1Br)C(=O)O)c1ccc(-c2ccc(Cl)cc2)cc1 (stereo not drawn) [Example 219, [1,1'-Biphenyl]-4-butanoic acid, 4'-chloro-α-[[(2-bromophenyl)thio]methyl]-4'-chloro-γ-oxo-] |  |  | 260 nM | 600 nM
8 | O=C(O)[C@@H]1CCCC[C@H]1C(=O)c1ccc(-c2ccc(Cl)cc2)cc1 (relative stereo) [Example 285, Cyclohexanecarboxylic acid, 2-[(4'-chloro[1,1'-biphenyl]-4-yl)carbonyl]-, trans-] |  | 21% | 2500 nM | 
9 | O=C(CC(CCCc1ccccc1)C(=O)O)c1ccc(-c2ccc(I)cc2)cc1 (stereo not drawn) [Example 40, [1,1'-Biphenyl]-4-butanoic acid, 4'-iodo-γ-oxo-α-(3-phenylpropyl)-] |  |  | 121 nM | 50 nM
10 | CCc1ccc(-c2ccc(C(=O)CC(CC(C)C)C(=O)O)cc2)cc1 (stereo not drawn) [Example 16, [1,1'-Biphenyl]-4-butanoic acid, 4'-ethyl-α-(2-methylpropyl)-γ-oxo-] |  |  | 620 nM | 3100 nM
11 | Nc1ccc(-c2ccc(C(=O)CC(CCCc3ccccc3)C(=O)O)cc2)cc1 (stereo not drawn) [Example 58, [1,1'-Biphenyl]-4-butanoic acid, 4'-amino-γ-oxo-α-(3-phenylpropyl)-] |  |  | 1200 nM | 1500 nM
12 | COc1ccc(-c2ccc(C(=O)CC(CC(C)C)C(=O)O)cc2)cc1 (stereo not drawn) [Example 19, [1,1'-Biphenyl]-4-butanoic acid, 4'-methoxy-α-(2-methylpropyl)-γ-oxo-] |  |  | 550 nM | 1200 nM
13 | COc1ccc(CCCC(CC(=O)c2ccc(-c3ccc(Cl)cc3)cc2)C(=O)O)cc1 (stereo not drawn) [Example 186, [1,1'-Biphenyl]-4-butanoic acid, 4'-chloro-α[3-(4-methoxyphenyl)propyl]-γ-oxo-] |  |  | 170 nM | 383 nM
14 | O=C(O)CCC(CCCc1ccccc1)C(=O)c1ccc(-c2ccc(Cl)cc2)cc1 (centres unmarked) [Example 343, [1,1'-Biphenyl]-4-pentanoic acid, 4'-chloro-δ-oxo-γ-(phenylpropyl)-] |  |  | 500 nM | 680 nM
15 | CCC(CC(=O)c1ccc(-c2ccc(Cl)cc2)cc1)C(=O)O (stereo not drawn) [Example 117, [1,1'-Biphenyl]-4-butanoic acid, 4'-chloro-α-ethyl-γ-oxo-] |  |  | 590 nM | 3800 nM
16 | CCCOc1ccc(-c2ccc(C(=O)CC(CCCc3ccccc3)C(=O)O)cc2)cc1 (stereo not drawn) [Example 84, [1,1'-Biphenyl]-4-butanoic acid, γ-oxo-α-(3-phenylpropyl)-4'-propoxy-] |  |  | 150 nM | 100 nM
17 | O=C(C[C@H](C[S+]([O-])c1ccccc1)C(=O)O)c1ccc(-c2ccc(Cl)cc2)cc1 (stereo partly drawn) [Example 248, [1,1'-Biphenyl]-4-butanoic acid, 4'-chloro-γ-oxo-α-[(phenylsulfinyl)methyl]-, stereoisomer] |  |  | 830 nM | 
18 | O=C(C[C@H](C[S+]([O-])c1ccccc1)C(=O)O)c1ccc(-c2ccc(Cl)cc2)cc1 (stereo partly drawn) [Example 249, [1,1'-Biphenyl]-4-butanoic acid, 4'-chloro-γ-oxo-α-[(phenylsulfinyl)methyl]-, stereoisomer] |  |  | 1600 nM | 
19 | O=C(C[C@@H](CSc1ccccc1)C(=O)O)c1ccc(-c2ccc(Cl)cc2)cc1 [Example 198, 4-[4-(4-chlorophenyl)phenyl]-4-oxo-2R-(phenylthiomethyl)butanoic acid] |  | 21% |  | 
20 | CCCCCCCC(CC(=O)c1ccc(-c2ccc(Cl)cc2)cc1)C(=O)O (stereo not drawn) [Example 122, [1,1'-Biphenyl]-4-butanoic acid, 4'-chloro-α-hepty-γ-oxo-] |  |  | 403 nM | 
21 | COC(=O)c1ccccc1CCC(CC(=O)c1ccc(-c2ccc(Cl)cc2)cc1)C(=O)O (stereo not drawn) [Example 142, [1,1'-Biphenyl]-4-butanoic acid, 4'-chloro-α-[2-[2-(methoxycarbonyl)phenyl]ethyl]-γ-oxo-] |  |  | 310 nM | 
22 | O=C(CC(CSc1cccc(C(F)(F)F)c1)C(=O)O)c1ccc(-c2ccc(Cl)cc2)cc1 (stereo not drawn) [Example 236, [1,1'-Biphenyl]-4-butanoic acid, 4'-chloro-γ-oxo-α-[[[3-(trifluoromethyl)phenyl]thio]methyl]-] |  |  | 2000 nM | 
23 | O=C(O)Cc1ccc(SCC(CC(=O)c2ccc(-c3ccc(Cl)cc3)cc2)C(=O)O)cc1 (stereo not drawn) [Example 238, [1,1'-Biphenyl]-4-butanoic acid, α-[[[4-(carboxymethyl)phenyl]thio]methyl]-4'-chloro-γ-oxo-] |  |  | 920 nM | 
24 | CCCCCCCCCCC(CC(=O)c1ccc(-c2ccc(Cl)cc2)cc1)C(=O)O (stereo not drawn) [Example 123, [1,1'-Biphenyl]-4-butanoic acid, 4'-chloro-α-decyl-γ-oxo-] | 43% |  |  | 
25 | CC(CC(=O)c1ccc(-c2ccc(Cl)cc2)cc1)(Sc1ccccc1)C(=O)O (stereo not drawn) [Example 245, [1,1'-Biphenyl]-4-butanoic acid, 4'-chloro-α-methyl-γ-oxo-α-(phenylthio)-] | 55% |  |  | 
26 | CCN(CC)CCC(CC(=O)c1ccc(-c2ccc(Cl)cc2)cc1)C(=O)O (stereo not drawn) [Example 264, [1,1'-Biphenyl]-4-butanoic acid, 4'-chloro-α-[2-(diethylamino)ethyl]-γ-oxo-, hydrochloride] | 48% |  |  | 
27 | O=C(CC(CCc1ccccc1I)C(=O)O)c1ccc(-c2ccc(Cl)cc2)cc1 (stereo not drawn) [Example 126, [1,1'-Biphenyl]-4-butanoic acid, 4'-chloro-α-[2-(2-iodophenyl)ethyl]-γ-oxo-] |  |  | 600 nM | 
28 | CC(C)CC1CC(c2ccc(-c3ccc(Cl)cc3)cc2)OC1=O (centres unmarked) [Example 35, 2(3H)-Furanone, 5-(4'-chloro[1,1'-biphenyl]-4-yl)dihydro-3-(2-methylpropyl)-, reference compound] | 0% |  |  | 
29 | O=C(C[C@@H](C[S+]([O-])c1ccccc1)C(=O)O)c1ccc(-c2ccc(Cl)cc2)cc1 (stereo partly drawn) [Example 246, [1,1'-Biphenyl]-4-butanoic acid, 4'-chloro-γ-oxo-α-[(phenylsulfinyl)methyl]-, stereoisomer] | 14% |  |  | 
